Source: article PMC9837997, “Purification, Characterization and anticancer activity of L-methionine γ-lyase from thermo-tolerant Aspergillus fumigatus” (Microbial Cell Factories, 2023)

Tested on: T1, L-methionine γ-lyase (MGL); A. fumigatus L-methioninase
T1 construct: native extracellular enzyme purified from culture supernatant (heat treatment, Sephadex G-100); about 46 kDa on SDS-PAGE; homodimer
Assay: DTNB assay of released methanethiol at […] nm, Lineweaver-Burk plot
Format: biochemical, Aspergillus fumigatus
Details: 0.05 M potassium phosphate pH 7.0, 0.01 mM PLP, 0.25 mM DTNB, 30 °C; read-out: apparent Km

Compound: CSCC[C@H](N)C(=O)O [L-methionine]
- Km: 20.6 mM
